Experimental data as given in article PMC3493529, “Molecular and Pharmacological Characterization of Serotonin 5-HT2α and 5-HT7 Receptors in the Salivary Glands of the Blowfly Calliphora vicina” (PLoS ONE, 2012).
pEC50, pIC50: −log10 of the molar value. Like-named read-outs stand apart in the source and are kept apart here.

Experiments:
[1] = test system: blowfly salivary glands; experiment: Transepithelial potential (TEP) of blowfly salivary glands, agonists; assay type: cell-based, Calliphora vicina; parameters: key to negative TEP phase / positive TEP phase: ++: high amplitude; +: low amplitude; -: no apparent effect; -/+: variable effect
Experimental: The abdominal portions of salivary glands were dissected in physiological saline (in mM: 128 NaCl, 10 KCl, 2 CaCl2, 2.7 MgCl2, 3 Na-glutamate, 2.8 maleic acid, 10 D-glucose and 10 Tris-HCl, pH 7.2). Measurements of transepithelial potential (TEP) were performed by the oil-gap method with a DPA-2F differential amplifier (npi Electronic Instruments, Tamm, Germany). Data were sampled and digitized at 1 Hz (KUSB-3102 module for AD-conversion; Keithley, Germering, Germany) by using the software TestPoint (v4.1; Capital Equipment Corp, Billerica, MA, USA) for data acquisition and storage.

[2] = test system: salivary glands; parameters: method as in PMID 9097929; settings: read-out: EC50 of Ca2+ responses in salivary glands; cited from earlier work
[3] = test system: blowfly salivary glands; parameters: method as in PMID 6272697, PMID 4339528, PMID 16621952; settings: cAMP formation, electrical response, luminal acidification and fluid secretion; read-out: 5-HT concentration eliciting the half-maximal effect in blowfly salivary glands; cited from earlier work
[4] = molecular target: T1, Cv5-HT2α (Calliphora vicina, UniProt I7JA47); experiment: Ca2+ signals (Fluo-4) in Cv5-HT2α-expressing HEK 293 cells, agonists; assay type: cell-based; settings: for effect on [Ca2+]i in Cv5-HT2α-expressing cells: 1 µM biogenic amine, non-transfected cells as control; for pEC50 / Cv5-HT2α EC50 / Cv5-HT2α log EC50: Cv5-HT2α-expressing HEK 293 cells; for Cv5-HT2α EC50 / Cv5-HT2α log EC50: Ca2+-dependent Fluo-4 signal
Experimental: (§1) We applied a previously established protocol to generate cell lines that constitutively expressed either Cv5-HT2α or Cv5-HT7. […] (flpTM cells, provided by Sibion biosciences GmbH, Jülich, Germany). Approximately 8 µg of the respective expression vectors were introduced into ∼4×10^5 cells by a modified calcium-phosphate method. Stably transfected cells were selected in the presence of the antibiotics Blasticidin (0.1 mg/ml; Cv5-HT2α) or G418 (0.8 mg/ml; Cv5-HT7). Expression of Cv5-HT2α and Cv5-HT7 was monitored by Western blotting with commercially available anti-His antibodies (anti-6x His Epitope Tag; Rockland Immunochemicals Inc, Gilbertsville, USA) and anti-HA antibodies (clone 3F10; Roche, Penzberg, Germany), respectively.
(§2) The ability of Cv5-HT2α to induce Ca^2+ signals in the transfected cell line was measured with the Ca^2+-sensitive dye Fluo-4. Similarly, Cv5-HT7-induced cAMP production was indirectly monitored by the cAMP-dependent activation of the cyclic nucleotide-gated ion channel in flpTM cells (see above). The cyclic nucleotide-gated ion channel is permeable to Ca^2+ ions and thus an increase in [cAMP]i leads to an influx of Ca^2+ ions, which can be detected with Fluo-4. […] After 1 h, the loading solution was substituted for dye-free ES. To inhibit cAMP hydrolysis in Cv5-HT7-expressing cells, ES containing 100 µM isobutylmethylxanthine (IBMX) was used. Plates were transferred into a fluorescence reader (FLUOstar Omega; bmg, Offenburg, Germany) and Fluo-4 fluorescence was monitored. […] Fluorescence emission was detected at 520 nm. Once the basal fluorescence in each well had reached a stable value, various concentrations of the respective ligands were added. The resulting changes in Fluo-4 fluorescence were recorded automatically.

[5] = molecular target: T2, Cv5-HT7 (Calliphora vicina, UniProt I7IA71); experiment: Direct cAMP quantification (cAMP-Screen System) in Cv5-HT7-expressing cells; assay type: cell-based; settings: 1 µM biogenic amine; 100 µM IBMX
Experimental: The Cv5-HT7-expressing cell line was also used to determine receptor-induced cAMP production in response to various biogenic amines directly. Assays to quantify cAMP amounts were performed as described earlier by using the cAMP-Screen System (Applied Biosystems, Darmstadt, Germany).

[6] = molecular target: T2, Cv5-HT7; experiment: cAMP-dependent CNG channel Ca2+ influx (Fluo-4) in Cv5-HT7-expressing flpTM cells, agonists; assay type: cell-based
Experimental: as §1, §2

[7] = molecular target: T2, Cv5-HT7; experiment: Inhibition of 5-HT-induced Fluo-4 signals in Cv5-HT7-expressing cells; assay type: cell-based; settings: in the presence of 6 nM 5-HT
Experimental: as §1, with “Cv5-HT7. For Cv5-HT2α expression, human embryonic kidney cells (HEK 293; ECACC, Salisbury, UK) were chosen.” for “Cv5-HT7.”
(§3) The ability of Cv5-HT2α to induce Ca^2+ signals in the transfected cell line was measured with the Ca^2+-sensitive dye Fluo-4. Similarly, Cv5-HT7-induced cAMP production was indirectly monitored by the cAMP-dependent activation of the cyclic nucleotide-gated ion channel in flpTM cells (see above). The cyclic nucleotide-gated ion channel is permeable to Ca^2+ ions and thus an increase in [cAMP]i leads to an influx of Ca^2+ ions, which can be detected with Fluo-4. Cells were grown in 96-well plates to a density of ∼3×10^4 (Cv5-HT2α) or 1.5×10^4 (Cv5-HT7) and then incubated in extracellular solution (ES in mM: 120 NaCl, 5 KCl, 2 CaCl2, 2 MgCl2, 10 glucose, 10 HEPES, pH 7.4) containing 3 mM probenecid, 0.02% (w/v) Pluronic® F-127 (Sigma) and 2 µM Fluo-4AM (Invitrogen). After 1 h, the loading solution was substituted for dye-free ES. To inhibit cAMP hydrolysis in Cv5-HT7-expressing cells, ES containing 100 µM isobutylmethylxanthine (IBMX) was used. Plates were transferred into a fluorescence reader (FLUOstar Omega; bmg, Offenburg, Germany) and Fluo-4 fluorescence was monitored. The excitation wavelength was 485 nm. Fluorescence emission was detected at 520 nm. Once the basal fluorescence in each well had reached a stable value, various concentrations of the respective ligands were added. The resulting changes in Fluo-4 fluorescence were recorded automatically.
(§4) Changes in Ca^2+-dependent Fluo-4 signals were registered automatically. Data represent the means±SD of eight replicates. […] Relative fluorescence (%) is normalized to the values obtained with 100 nM 5-HT in the absence of antagonists. […] Relative fluorescence (%) is normalized to the values obtained with 6 nM 5-HT in the absence of antagonists.

[8] = molecular target: T1, Cv5-HT2α; experiment: Inhibition of 5-HT-induced Ca2+ signals in Cv5-HT2α-expressing cells; assay type: cell-based
Experimental: as §1, with “Cv5-HT7. For Cv5-HT2α expression, human embryonic kidney cells (HEK 293; ECACC, Salisbury, UK) were chosen.” for “Cv5-HT7.”
as §3, §4

[9] = Fluo-4 signal, Cv5-HT7-expressing flpTM cells, 100 µM IBMX, read-out: Cv5-HT7 EC50

T2 sequence (I7IA71 entry or part of it): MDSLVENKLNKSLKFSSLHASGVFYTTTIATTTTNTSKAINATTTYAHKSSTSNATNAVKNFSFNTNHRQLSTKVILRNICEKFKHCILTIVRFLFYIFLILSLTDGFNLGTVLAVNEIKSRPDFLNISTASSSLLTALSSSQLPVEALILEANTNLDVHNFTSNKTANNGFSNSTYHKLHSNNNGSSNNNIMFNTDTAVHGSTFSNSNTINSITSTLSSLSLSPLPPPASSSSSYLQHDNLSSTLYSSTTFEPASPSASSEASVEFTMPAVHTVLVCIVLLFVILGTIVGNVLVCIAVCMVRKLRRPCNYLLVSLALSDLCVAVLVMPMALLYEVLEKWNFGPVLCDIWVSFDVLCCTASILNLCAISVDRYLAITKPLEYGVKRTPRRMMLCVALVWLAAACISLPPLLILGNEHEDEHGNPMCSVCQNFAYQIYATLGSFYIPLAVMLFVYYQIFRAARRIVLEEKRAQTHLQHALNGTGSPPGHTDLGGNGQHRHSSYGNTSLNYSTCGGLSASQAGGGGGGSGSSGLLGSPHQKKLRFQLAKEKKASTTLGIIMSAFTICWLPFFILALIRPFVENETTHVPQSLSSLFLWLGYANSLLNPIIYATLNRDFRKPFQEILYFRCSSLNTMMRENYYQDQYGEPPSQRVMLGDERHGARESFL
T1 sequence (I7JA47 entry or part of it): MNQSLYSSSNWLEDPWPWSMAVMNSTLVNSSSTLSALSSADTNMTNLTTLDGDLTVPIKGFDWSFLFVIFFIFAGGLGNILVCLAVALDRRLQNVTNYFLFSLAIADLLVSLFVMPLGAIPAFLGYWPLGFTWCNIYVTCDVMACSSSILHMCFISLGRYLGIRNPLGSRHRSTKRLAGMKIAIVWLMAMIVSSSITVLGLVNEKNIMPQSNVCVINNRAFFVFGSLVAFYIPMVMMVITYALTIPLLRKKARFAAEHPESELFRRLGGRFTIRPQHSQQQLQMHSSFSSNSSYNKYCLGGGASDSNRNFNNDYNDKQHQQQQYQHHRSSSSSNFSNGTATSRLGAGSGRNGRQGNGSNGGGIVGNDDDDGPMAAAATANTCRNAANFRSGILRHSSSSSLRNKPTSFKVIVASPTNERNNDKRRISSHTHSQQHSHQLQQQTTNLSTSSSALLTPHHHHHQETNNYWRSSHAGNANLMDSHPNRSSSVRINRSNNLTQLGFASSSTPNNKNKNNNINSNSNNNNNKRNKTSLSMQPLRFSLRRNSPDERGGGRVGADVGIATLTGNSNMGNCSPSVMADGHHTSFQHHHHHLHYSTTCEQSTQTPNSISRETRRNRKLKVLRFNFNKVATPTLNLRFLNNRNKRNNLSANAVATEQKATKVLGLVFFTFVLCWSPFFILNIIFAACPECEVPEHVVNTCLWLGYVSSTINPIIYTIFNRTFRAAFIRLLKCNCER

For `NCCc1c[nH]c2ccc(O)cc12` [5-HT, 5-hydroxytryptamine], which “TEP change of salivary glands” value ([1]; 30 nM) is on record?
The value was “characteristic biphasic change in the TEP”.

And the pEC50 [2]?
The pEC50 was 8.55.

And the pEC50 [3]?
The pEC50 was 8.22 to 9.00.

What about the “effect on [Ca2+]i in Cv5-HT2α-expressing cells” value [4] of the same compound?
The value was “increase of [Ca^2+]i”.

What about the pEC50 ([4]; Cv5-HT2α EC50, Ca2+-dependent Fluo-4 signal) of the same compound?
The pEC50 was 7.62.

And the pEC50 ([4]; Cv5-HT2α log EC50, Ca2+-dependent Fluo-4 signal)?
Its pEC50 is 7.62.

And the “effect on [cAMP]i in Cv5-HT7-expressing cells” value [5]?
Its value is “rise of [cAMP]i”.

What about the pEC50 [6, 9] of the same compound?
Its pEC50 is 8.40.

And the EC50 ([6]; Fluo-4 signal, Cv5-HT7-expressing flpTM cells, 100 µM IBMX, read-out: Cv5-HT7 log EC50 (converted))?
The EC50 was 4.07 nM.

For `CCN(CC)C(=O)N[C@H]1C=C2c3cccc4[nH]cc(c34)C[C@H]2N(C)C1` [R(+)-lisuride], which “TEP change of salivary glands” value ([1]; 30 nM) is on record?
The value was “irreversible positive-going TEP change”.

And the “negative TEP phase” value ([1]; 0.03-0.3 µM)?
Its value is “-”.

And the “positive TEP phase” value ([1]; 0.03-0.3 µM)?
The value was “++”.

What about the reversibility ([1]; 0.03-0.3 µM) of the same compound?
The reversibility was “no (within 20 min)”.

What about the “Cv5-HT2α EC50” value [4] of the same compound?
Its value is “no effect”.

And the “Cv5-HT2α log EC50” value [4]?
The value was “no effect”.

And the “Cv5-HT7 log EC50” value ([6]; Fluo-4 signal, Cv5-HT7-expressing flpTM cells, 100 µM IBMX)?
The value was −8.75±0.05.

And the pEC50 [6, 9]?
Its pEC50 is 8.70.

What about the “efficacy at Cv5-HT7 compared to 5-HT” value ([6]; highest agonist concentrations, normalized to 5-HT maximum) of the same compound?
The value was “very low efficacy”.

For `NCCc1ccc(O)c(O)c1` [dopamine], which “effect on [Ca2+]i in Cv5-HT2α-expressing cells” value [4] is on record?
Its value is “only 5-HT led to an increase of [Ca^2+]i”.

What about the “effect on [cAMP]i in Cv5-HT7-expressing cells” value [5] of the same compound?
The value was “only 5-HT led to a rise of [cAMP]i”.

Which “TEP change of salivary glands” value ([1]; 3 µM) does the source give for `CC[C@@H](CO)NC(=O)[C@@H]1C=C2c3cccc4c3c(cn4C)C[C@H]2N(C)C1` [methysergide] here?
Its value is “complex biphasic TEP responses”.

And the “negative TEP phase” value ([1]; 3 µM)?
Its value is “+”.

What about the reversibility ([1]; 3 µM) of the same compound?
The reversibility was “yes”.

What about the “Cv5-HT2α EC50” value [4] of the same compound?
The value was “no effect”.

What about the “Cv5-HT2α log EC50” value [4] of the same compound?
Its value is “no effect”.

And the “Cv5-HT7 IC50” value [7]?
The value was “agonistic effect”.

What about the “Cv5-HT7 log IC50” value [7] of the same compound?
Its value is “agonistic effect”.

What about the pIC50 ([8]; Cv5-HT2α IC50, in the presence of 100 nM 5-HT) of the same compound?
Its pIC50 is 4.70.

What about the pIC50 ([8]; Cv5-HT2α log IC50, in the presence of 100 nM 5-HT) of the same compound?
Its pIC50 is 4.71.

And the pEC50 ([6]; Cv5-HT7 EC50, Fluo-4 signal, Cv5-HT7-expressing flpTM cells, 100 µM IBMX)?
Its pEC50 is 6.11.

And the pEC50 ([6]; Cv5-HT7 log EC50, Fluo-4 signal, Cv5-HT7-expressing flpTM cells, 100 µM IBMX)?
Its pEC50 is 6.11.

Which results are given for `NCC(O)c1ccc(O)cc1` (centres unmarked) [octopamine]?
effect on [Ca2+]i in Cv5-HT2α-expressing cells [4]: only 5-HT led to an increase of [Ca^2+]i; effect on [cAMP]i in Cv5-HT7-expressing cells [5]: only 5-HT led to a rise of [cAMP]i

What does the source list for `NCCc1ccc(O)cc1` [tyramine]?
effect on [Ca2+]i in Cv5-HT2α-expressing cells [4]: only 5-HT led to an increase of [Ca^2+]i; effect on [cAMP]i in Cv5-HT7-expressing cells [5]: only 5-HT led to a rise of [cAMP]i
